Structures are written as SMILES. Like-named read-outs stand apart in the source and are kept apart here.

Type in all cases: in vivo
Experiment [1] concerns Diabrotica balteata (Corn Root Worm). The experiment can be described thus: Example B2: Diabrotica balteata, maize sprouts, L2 larvae. As to conditions: 96 h, application rate of 200 ppm, 4 days after infestation, read-out: effect in at least one of the two categories (mortality or growth inhibition). The procedure:
(§1) Maize sprouts placed onto an agar layer in 24-well microtiter plates were treated with aqueous test solutions prepared from 10'000 ppm DMSO stock solutions by spraying. After drying, the plates were infested with L2 larvae (6 to 10 per well). The samples were assessed for mortality and growth inhibition in comparison to untreated samples 4 days after infestation. The following compounds gave an effect of at least 80% in at least one of the two categories (mortality or growth inhibition) at an application rate of 200 ppm: P1, P2, P3, P4, P5, P6, P7, P8, P9, P10, P11, P12, P13, P14, and P15.

Experiment [2] concerns Spodoptera littoralis (Egyptian Cotton Leaf Worm). The experiment can be described thus: Example B7: Spodoptera littoralis, cotton leaf discs, L1 larvae. As to conditions: foliar, 72 h, application rate of 200 ppm, 3 days after infestation. Here is the method: (§2) Cotton leaf discs were placed onto agar in 24-well microtiter plates and sprayed with aqueous test solutions prepared from 10'000 ppm DMSO stock solutions. After drying the leaf discs were infested with five L1 larvae. The samples were assessed for mortality, anti-feeding effect, and growth inhibition in comparison to untreated samples 3 days after infestation. Control of Spodoptera littoralis by a test sample is given when at least one of the categories mortality, anti-feedant effect, and growth inhibition is higher than the untreated sample.

Experiment [3] concerns Euschistus heros (Neotropical Brown Stink Bug). Description: Example B3: Euschistus heros, soybean leaves, N2 nymphs. As to conditions: 120 h, application rate of 200 ppm, 5 days after infestation, read-out: effect in at least one of the two categories (mortality or growth inhibition). Here is the method:
Soybean leaves on agar in 24-well microtiter plates were sprayed with aqueous test solutions prepared from 10'000 ppm DMSO stock solutions. After drying the leaves were infested with N2 nymphs. The samples were assessed for mortality and growth inhibition in comparison to untreated samples 5 days after infestation. The following compounds gave an effect of at least 80% in at least one of the two categories (mortality or growth inhibition) at an application rate of 200 ppm: • P1, P3, P8, P9, P10, P13, P14, and P15

Experiment [4] concerns Thrips tabaci (Onion Thrips). Description: Example B10: Thrips tabaci feeding/contact activity. As to conditions: 144 h, application rate of 200 ppm, 6 days after infestation. Here is the method:
Sunflower leaf discs were placed on agar in 24-well microtiter plates and sprayed with aqueous test solutions prepared from 10'000 ppm DMSO stock solutions. After drying the leaf discs were infested with a thrips population of mixed ages. The samples were assessed for mortality 6 days after infestation.

The subject of experiment [5] is Diabrotica balteata (Corn Root Worm). The experiment can be described thus: Example B13: Breakpoint (BP80) against Diabrotica balteata. The note with it: lowest concentration which gives 80% larval mortality; larval feeding/contact. The procedure: as §1
(§3) Insecticidal action against Diabrotica balteata (Corn root worm), Plutella xylostella (Diamond black moth), and Spodoptera littoralis (Egyptian cotton leaf worm). The tests were carried out as described in biological examples B2, B6 and B7, respectively, with the larval feeding/contact activity being reported as Breakpoint (BP80) values in parts per million (i.e. the lowest concentration which gives 80% larval mortality).

The subject of experiment [6] is Plutella xylostella (Diamond black moth). The experiment can be described thus: Example B13: Breakpoint (BP80) against Plutella xylostella. The note with it: lowest concentration which gives 80% larval mortality; larval feeding/contact. Here is the method:
(§4) 24-well microtiter plates with artificial diet were treated with aqueous test solutions prepared from 10'000 ppm DMSO stock solutions by pipetting. After drying, the plates were infested with L2 larvae (10 to 15 per well). The samples were assessed for mortality and growth inhibition in comparison to untreated samples 5 days after infestation. The following compounds gave an effect of at least 80% in at least one of the two categories (mortality or growth inhibition) at an application rate of 200 ppm: P1, P2, P3, P4, P6, P8, P9, P10, P11, P12, P13, P14 and P15.
as §3

For experiment [7], the system named is Plutella xylostella (Diamond Back Moth). Description: Example B6: Plutella xylostella, artificial diet, L2 larvae. The note with it: 120 h, application rate of 200 ppm, 5 days after infestation, read-out: effect in at least one of the two categories (mortality or growth inhibition). Here is the method:
as §4

In experiment [8] the test system is Spodoptera littoralis (Egyptian Cotton Leaf Worm). Description: Example B13: Breakpoint (BP80) against Spodoptera littoralis. The note with it: lowest concentration which gives 80% larval mortality; larval feeding/contact. The procedure: as §2, §3
Experiment [9] concerns Myzus persicae (Green Peach Aphid). The experiment can be described thus: Example B5: Myzus persicae systemic activity. As to conditions: 144 h, test rate of 24 ppm, pea seedling roots, 6 days. The procedure: Roots of pea seedlings infested with an aphid population of mixed ages were placed directly into aqueous test solutions prepared from 10'000 DMSO stock solutions. The samples were assessed for mortality 6 days after placing seedlings into test solutions.

Experiment [10] shares this test system. Description: Example B4: Myzus persicae feeding/contact activity. The note with it: 144 h, application rate of 200 ppm, 6 days after infestation. The procedure:
Sunflower leaf discs were placed onto agar in a 24-well microtiter plate and sprayed with aqueous test solutions prepared from 10'000 ppm DMSO stock solutions. After drying, the leaf discs were infested with an aphid population of mixed ages. The samples were assessed for mortality 6 days after infestation.

Experiment [11] concerns Spodoptera littoralis (Egyptian Cotton Leaf Worm). Description: Example B8: Spodoptera littoralis systemic activity. As to conditions: 144 h, test rate of 12.5 ppm, lettuce, 6 days after infestation, read-out: effect in at least one of the three categories (mortality, anti-feeding, or growth inhibition). From the text: Test compounds were applied by pipette from 10'000 ppm DMSO stock solutions into 24-well plates and mixed with agar. Lettuce seeds were placed onto the agar and the multi well plate was closed by another plate which contained also agar. After 7 days the compound was absorbed by the roots and the lettuce grew into the lid plate. The lettuce leaves were then cut off into the lid plate. Spodoptera eggs were pipetted through a plastic stencil onto a humid gel blotting paper and the lid plate was closed with it. The samples were assessed for mortality, anti-feedant effect and growth inhibition in comparison to untreated samples 6 days after infestation. The following compounds gave an effect of at least 80% in at least one of the three categories (mortality, anti-feeding, or growth inhibition) at a test rate of 12.5 ppm: • P10, P13, P14 and P15.

The subject of experiment [12] is Tetranychus urticae (Two-Spotted Spider Mite). The experiment can be described thus: Example B9: Tetranychus urticae feeding/contact activity. The note with it: 192 h. Here is the method: Bean leaf discs on agar in 24-well microtiter plates were sprayed with aqueous test solutions prepared from 10'000 ppm DMSO stock solutions. After drying the leaf discs were infested with a mite population of mixed ages. The samples were assessed for mortality on mixed population (mobile stages) 8 days after infestation.

Experiment [13] relates to Bemisia tabaci (Cotton White Fly). Description: Example B1: Bemisia tabaci feeding/contact activity. As to conditions: 144 h, application rate of 200 ppm, adult white flies, 6 days after incubation. Here is the method:
Cotton leaf discs were placed on agar in 24-well microtiter plates and sprayed with aqueous test solutions prepared from 10'000 ppm DMSO stock solutions. After drying the leaf discs were infested with adult white flies. The samples were checked for mortality 6 days after incubation.

In general, mortality refers to the share of the test organisms that died. `CCS(=O)(=O)c1ccc(-n2ccc(C(F)(F)F)n2)nc1-c1nc2cc(C(F)(F)F)ncc2n1C` [Compound P3, 2-[3-ethylsulfonyl-6-[3-(trifluoromethyl)pyrazol-1-yl]-2-pyridyl]-3-methyl-6-(trifluoromethyl)imidazo[4,5-c]pyridine]: the percent effect (mortality or growth inhibition) at 200 ppm in experiment [1], in [3] and in experiment [7] was at least 80% in each case. In [2], this compound had a percent control (mortality, anti-feedant effect or growth inhibition) at 200 ppm of at least 80%. The mortality at 200 ppm in experiment [4] is at least 80%. The “BP80 Values Diabrotica balteata” value in [5] stood at 0.8 ppm. In [6], the “BP80 Values Plutella xylostella” value was found to be 12 ppm. Further, the “BP80 Values Spodoptera littoralis” value in experiment [8] amounted to 0.8 ppm.
Consider `CCS(=O)(=O)c1ccc(-c2ncccn2)nc1-c1nc2cc(SC(F)(F)F)ncc2n1C` [Compound P10, 2-(3-ethylsulfonyl-6-pyrimidin-2-yl-2-pyridyl)-3-methyl-6-(trifluoromethylsulfanyl)imidazo[4,5-c]pyridine], for which the mortality at 24 ppm in [9] is at least 80%. Besides, the mortality at 200 ppm in experiment [10], in experiment [4] and in [12] was at least 80% throughout. The percent effect (mortality or growth inhibition) at 200 ppm in [1], in experiment [3] and in [7] was at least 80% in each case. In experiment [2], this compound showed a percent control (mortality, anti-feedant effect or growth inhibition) at 200 ppm of at least 80%. In addition, the percent effect (mortality, anti-feeding or growth inhibition) at 12.5 ppm in experiment [11] is at least 80%.
`CCS(=O)(=O)c1ccc(C2CC2)nc1-c1nc2cc(SC(F)(F)F)ncc2n1C` [Compound P13, 2-(6-cyclopropyl-3-ethylsulfonyl-2-pyridyl)-3-methyl-6-(trifluoromethylsulfanyl)imidazo[4,5-c]pyridine]: the mortality at 200 ppm was at least 80% in experiment [10]; at least 80% in [13]; at least 80% in [12] (application rate of 200 ppm, mixed population (mobile stages), 8 days after infestation, read-out: mortality). Also, the percent effect (mortality or growth inhibition) at 200 ppm in experiment [1], in [3] and in experiment [7] was at least 80% throughout. This compound also yielded a percent control (mortality, anti-feedant effect or growth inhibition) at 200 ppm in experiment [2] of at least 80%. Further, in [11], the percent effect (mortality, anti-feeding or growth inhibition) at 12.5 ppm is at least 80%.

The values above are taken from patent US10138238B2, “Pesticidally active polycyclic derivatives with sulfur containing substituents” (Syngenta Participations AG, priority 2015, dated 2018).
